According to patent publication EP4786487A1, “PEPTIDE” (Peptidream Inc, priority 2023, dated 2025):
Read-outs that look alike come from different tables or passages of the source. Starred links: 1 amine or outer side, 2 acyl side, 3 side chain; linkers in the order of their positions; H or OH if unused. Positions of bridges follow the written chain, without caps; N, C: chain ends. Non-standard residues stand in square brackets, D forms with d. Residues, ends and D or L forms follow the SMILES beside them. Groups on a side chain read outwards from the residue. *: point of attachment. Phe(3-OCH2COOH) = N[C@@H](Cc1cccc(OCC(=O)O)c1)C(=O)O; Phe(3-Ph) = N[C@@H](Cc1cccc(-c2ccccc2)c1)C(=O)O; Phe(4-COOH) = N[C@@H](Cc1ccc(C(=O)O)cc1)C(=O)O; Trp(7-aza) = N[C@@H](Cc1c[nH]c2ncccc12)C(=O)O; Piperazinyl(4-CH2COOH) = O=C(O)CN1CCN(*)CC1; Gly(decyl) = CCCCCCCCCC[C@H](N)C(=O)O; Gly(N(CH2)3COOH) = O=C(O)CCCNCC(=O)O; NMe4Pal = CN[C@@H](Cc1ccncc1)C(=O)O; NMeY = CN[C@@H](Cc1ccc(O)cc1)C(=O)O; X1 = CCCCCCC[C@H](N[*:1])C(=O)[*:2]; NMeF = CN[C@@H](Cc1ccccc1)C(=O)O; hCys = N[C@@H](CCS)C(=O)O; NMeA = CN[C@@H](C)C(=O)O; Propyl(3-NH2) = NCCC*; CO = O=C([*:1])[*:2]; Sar = CNCC(=O)O

Tests used:
Myostatin = biological target: T1, Myostatin (Homo sapiens, UniProt O14793); experiment: HepG2 reporter gene assay, Evaluation Procedure (2): 2-concentrations assay, myostatin inhibition; type: cell-based; settings: HepG2
T1 construct: active myostatin (also called mature myostatin) is a homodimer consisting of two C-terminal growth factor domains; purchased R&D systems 788-G8/CF
T1 sequence (O14793 267-375): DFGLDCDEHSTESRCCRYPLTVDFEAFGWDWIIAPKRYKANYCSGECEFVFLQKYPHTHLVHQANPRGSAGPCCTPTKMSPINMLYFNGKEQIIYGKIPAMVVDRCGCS
Procedure, shortened: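 Myostatin inhibition was measured in a luciferase reporter assay using HepG2 cells transfected with a pGL3 vector containing 12 CAGA repeats upstream of luciferase. After 20 to 24 hours with 10 ng/mL myostatin, cells received One-Glo:PBS (1:1) at 100 µL/well, were shaken for 5 min, and 20 µL/well was moved to 384-well plates and read on an Envision 2104.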

GDF-11 = biological target: T2, GDF-11 (Homo sapiens, UniProt O95390); experiment: HepG2 reporter gene assay, Evaluation Procedure (2): 2-concentrations assay, GDF-11 inhibition; type: cell-based; settings: for inhibition at 0.03 µM: HepG2, peptide 30nM, read-out: GDF11 Inhibition 30nM; for inhibition at 0.03 µM / inhibition at 0.1 µM: GDF-11 10 ng/mL; for inhibition at 0.1 µM: HepG2, peptide 100nM, read-out: GDF11 Inhibition 100nM; for inhibition: read-out: inhibition rate (GDF-11 inhibition assay)
T2 construct: purchased R&D systems 1958-GD-G8/CF
T2 sequence (O95390 299-407): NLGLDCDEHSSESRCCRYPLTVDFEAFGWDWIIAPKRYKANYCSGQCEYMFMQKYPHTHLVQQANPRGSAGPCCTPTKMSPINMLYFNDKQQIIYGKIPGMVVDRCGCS
Procedure, shortened: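 HepG2 cells carrying the transfected pGL3(CAGA)12-luc reporter, a pGL3 vector with luciferase placed downstream of 12 CAGA repeats, were stimulated with GDF-11 at a final 10 ng/mL together with test peptide. Blank wells received no GDF-11 and no peptide. Plates were incubated 20 to 24 hours at 37°C with 5% CO2. Luminescence from One-Glo substrate was read to calculate percent inhibition.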

[1] = peptide 30nM, Myostatin 10 ng/mL, read-out: Myostatin Inhibition 30nM
[2] = peptide 100nM, Myostatin 10 ng/mL, read-out: Myostatin Inhibition 100nM
[3] = Table 7-3/7-4, myostatin 10 ng/mL, peptide at the higher of the 2 concentrations, read-out: inhibition rate (myostatin inhibition assay)
[4] = Table 7-3/7-4, myostatin 10 ng/mL, peptide at the lower of the 2 concentrations, read-out: inhibition rate (myostatin inhibition assay)
[5] = HepG2, first GDF-11 column of Table 7-3/7-4, GDF-11 10 ng/mL, peptide at the lower of the 2 concentrations
[6] = HepG2, second GDF-11 column of Table 7-3/7-4, GDF-11 10 ng/mL, peptide at the higher of the 2 concentrations

CCCCCCC[C@@H]1NC(=O)[C@H](Cc2ccccc2)N(C)C(=O)[C@H](CCCNC(=N)N)NC(=O)[C@H](Cc2ccc(C(=O)O)cc2)NC(=O)[C@H](Cc2cccc(OCC(=O)O)c2)NC(=O)CN(C)C(=O)[C@H]([C@@H](C)CC)NC(=O)[C@H](Cc2ccc(OCCCN)cc2)N(C)C(=O)[C@H](Cc2ccc(O)cc2)NC(=O)[C@H](Cc2c[nH]c3ccccc23)NC(=O)[C@H](C)NC(=O)[C@H](C)NC(=O)CSC[C@H](C(=O)N2CCN(CC(=O)O)CC2)NC(=O)[C@H](Cc2ccccc2)N(C)C(=O)[C@H](C)N(C)C1=O [Myostatin_99_v302] ({CH2CO}-AAWY[NMeY](Propyl(3-NH2))I[Sar][Phe(3-OCH2COOH)][Phe(4-COOH)]R[NMeF][X1][NMeA][NMeF][dC]-{Piperazinyl(4-CH2COOH)}; thioether N-15)
inhibition at 0.03 µM (Myostatin; [1]): 99% | inhibition at 0.1 µM (Myostatin; [2]): 100% | inhibition at 0.03 µM (GDF-11): 0% | inhibition at 0.1 µM (GDF-11): 0%

CC[C@H](C)[C@@H]1NC(=O)[C@H](Cc2ccccc2)N(C)C(=O)[C@H](Cc2ccc(O)cc2)NC(=O)[C@H](Cc2c[nH]c3ccccc23)NC(=O)[C@H](CCCNC(=N)N)NC(=O)[C@H](C)NC(=O)CSC[C@@H](C(N)=O)NC(=O)[C@H](Cc2ccccc2)N(C)C(=O)[C@H](C)N(C)C(=O)[C@H](CC(C)C)NC(=O)[C@H](Cc2ccccc2)N(C)C(=O)[C@H](CCCNC(=N)N)NC(=O)[C@H](Cc2ccc(O)cc2)NC(=O)[C@H](Cc2ccc(O)cc2)NC(=O)CN(C)C1=O [Myostatin_Myostatin_000099] ({CH2CO}-ARWY[NMeF]I[Sar]YYR[NMeF]L[NMeA][NMeF]C-NH2; thioether N-15)
inhibition at 0.03 µM (Myostatin; [1]): 56% | inhibition at 0.1 µM (Myostatin; [2]): 87% | inhibition at 0.03 µM (GDF-11): 0% | inhibition at 0.1 µM (GDF-11): 19%

CCCCCCC[C@@H]1NC(=O)[C@H](Cc2ccccc2)N(C)C(=O)[C@H](CCCNC(=N)N)NC(=O)[C@H](Cc2ccc(C(=O)O)cc2)NC(=O)[C@H](Cc2cccc(OCC(=O)O)c2)NC(=O)CN(C)C(=O)[C@H]([C@@H](C)CC)NC(=O)[C@H](Cc2ccccc2)N(C)C(=O)[C@H](Cc2ccc(O)cc2)NC(=O)[C@H](Cc2c[nH]c3ccccc23)NC(=O)[C@H](C)NC(=O)[C@H](C)NC(=O)CSC[C@H](C(=O)O)NC(=O)[C@H](Cc2ccncc2)N(C)C(=O)[C@H](C)N(C)C1=O [Myostatin_99_v213] ({CH2CO}-AAWY[NMeF]I[Sar][Phe(3-OCH2COOH)][Phe(4-COOH)]R[NMeF][X1][NMeA][NMe4Pal][dC]-OH; thioether N-15)
inhibition at 0.03 µM (Myostatin; [1]): 90% | inhibition at 0.1 µM (Myostatin; [2]): 98% | inhibition at 0.03 µM (GDF-11): 0% | inhibition at 0.1 µM (GDF-11): 0%

CC[C@H](C)[C@@H]1NC(=O)[C@H](Cc2ccccc2)N(C)C(=O)[C@H](Cc2ccc(O)cc2)NC(=O)[C@H](Cc2c[nH]c3ncccc23)NC(=O)[C@H](C)NC(=O)[C@H](C)NC(=O)CSC[C@H](C(=O)NCC(=O)N[C@H](CCC(=O)O)C(=O)NCC(=O)N[C@H](CCCCN)C(=O)O)NC(=O)[C@H](Cc2ccccc2)N(C)C(=O)[C@H](C)N(C)C(=O)[C@H](CC(C)C)NC(=O)[C@H](Cc2ccccc2)N(C)C(=O)[C@H](CCCNC(=N)N)NC(=O)[C@H](Cc2ccc(C(=O)O)cc2)NC(=O)[C@H](Cc2ccccc2)NC(=O)CN(C)C1=O [Myostatin_99_v28] ({CH2CO}-AA[Trp(7-aza)]Y[NMeF]I[Sar]F[Phe(4-COOH)]R[NMeF]L[NMeA][NMeF][dC]G[dE]G[dK]-OH; thioether N-15)
inhibition at 0.03 µM (Myostatin; [1]): 69% | inhibition at 0.1 µM (Myostatin; [2]): 92% | inhibition at 0.03 µM (GDF-11): 0% | inhibition at 0.1 µM (GDF-11): 20%

CCCCCCC[C@@H]1NC(=O)[C@H](Cc2ccccc2)N(C)C(=O)[C@H](CCCNC(=N)N)NC(=O)[C@H](Cc2ccc(C(=O)O)cc2)NC(=O)[C@H](Cc2cccc(OCC(=O)O)c2)NC(=O)CN(C)C(=O)[C@H]([C@@H](C)CC)NC(=O)[C@H](Cc2ccccc2)N(C)C(=O)[C@H](Cc2cccc(-c3ccccc3)c2)NC(=O)[C@H](Cc2c[nH]c3ccccc23)NC(=O)[C@H](C)NC(=O)[C@H](C)NC(=O)CSC[C@H](C(=O)N2CCN(CC(=O)O)CC2)NC(=O)[C@H](Cc2ccccc2)N(C)C(=O)[C@H](C)N(C)C1=O [Myostatin_99_v301] ({CH2CO}-AAW[Phe(3-Ph)][NMeF]I[Sar][Phe(3-OCH2COOH)][Phe(4-COOH)]R[NMeF][X1][NMeA][NMeF][dC]-{Piperazinyl(4-CH2COOH)}; thioether N-15)
inhibition at 0.03 µM (Myostatin; [1]): 93% | inhibition at 0.1 µM (Myostatin; [2]): 99% | inhibition at 0.03 µM (GDF-11): 0% | inhibition at 0.1 µM (GDF-11): 0%

CC[C@H](C)[C@@H]1NC(=O)[C@H](Cc2ccccc2)N(C)C(=O)[C@H](Cc2ccc(O)cc2)NC(=O)[C@H](Cc2c[nH]c3ncccc23)NC(=O)[C@H](C)NC(=O)CN(CCCC(=O)O)C(=O)CSC[C@H](C(N)=O)NC(=O)[C@H](Cc2ccccc2)N(C)C(=O)[C@H](C)N(C)C(=O)[C@H](CC(C)C)NC(=O)[C@H](Cc2ccccc2)N(C)C(=O)[C@H](CCCNC(=N)N)NC(=O)[C@H](Cc2ccc(C(=O)O)cc2)NC(=O)[C@H](Cc2ccc(O)cc2)NC(=O)CN(C)C1=O [Myostatin_99_Variant_14] ({CH2CO}-[Gly(N(CH2)3COOH)]A[Trp(7-aza)]Y[NMeF]I[Sar]Y[Phe(4-COOH)]R[NMeF]L[NMeA][NMeF][dC]-NH2; thioether N-15)
inhibition at 0.03 µM (Myostatin; [1]): 41% | inhibition at 0.1 µM (Myostatin; [2]): 73% | inhibition at 0.03 µM (GDF-11): 0% | inhibition at 0.1 µM (GDF-11): 1%

CCCCCCCCCC[C@@H]1NC(=O)[C@H](Cc2ccccc2)N(C)C(=O)[C@H](CCCNC(=N)N)NC(=O)[C@H](Cc2ccc(C(=O)O)cc2)NC(=O)[C@H](Cc2cccc(OCC(=O)O)c2)NC(=O)CN(C)C(=O)[C@H]([C@@H](C)CC)NC(=O)[C@H](Cc2ccccc2)N(C)C(=O)[C@H](Cc2ccc(O)cc2)NC(=O)[C@H](Cc2c[nH]c3ccccc23)NC(=O)[C@@H](CCCCNC(=O)N2CCN(CC(=O)O)CC2)NC(=O)[C@H](C)NC(=O)CSC[C@H](C(=O)N2CCN(CC(=O)O)CC2)NC(=O)[C@H](Cc2ccccc2)N(C)C(=O)[C@H](C)N(C)C1=O [Myostatin_99_v264] ({CH2CO}-A[dK]([CO-Piperazinyl(4-CH2COOH)])WY[NMeF]I[Sar][Phe(3-OCH2COOH)][Phe(4-COOH)]R[NMeF][Gly(decyl)][NMeA][NMeF][dC]-{Piperazinyl(4-CH2COOH)}; thioether N-15)
inhibition at 0.03 µM (Myostatin; [1]): 100% | inhibition at 0.1 µM (Myostatin; [2]): 100% | inhibition at 0.03 µM (GDF-11): 24% | inhibition at 0.1 µM (GDF-11): 72%

CCCCCCC[C@@H]1NC(=O)[C@H](Cc2ccccc2)N(C)C(=O)[C@H](CCCNC(=N)N)NC(=O)[C@H](Cc2ccc(C(=O)O)cc2)NC(=O)[C@H](Cc2cccc(OCC(=O)O)c2)NC(=O)[C@H](C)N(C)C(=O)[C@H]([C@@H](C)CC)NC(=O)[C@H](Cc2ccccc2)N(C)C(=O)[C@H](Cc2ccc(O)cc2)NC(=O)[C@H](Cc2c[nH]c3ccccc23)NC(=O)[C@H](C)NC(=O)CN(CCCC(=O)O)C(=O)CSCC[C@@H](C(=O)O)NC(=O)[C@H](Cc2ccccc2)N(C)C(=O)[C@H](C)N(C)C1=O [Myostatin_99_v442] ({CH2CO}-[Gly(N(CH2)3COOH)]AWY[NMeF]I[NMeA][Phe(3-OCH2COOH)][Phe(4-COOH)]R[NMeF][X1][NMeA][NMeF][hCys]-OH; thioether N-15)
inhibition at 0.1 µM (Myostatin; [3]): 100% | inhibition at 0.03 µM (Myostatin; [4]): 100% | inhibition (GDF-11; [5]): 0% | inhibition (GDF-11; [6]): 0%

CCCCCCC[C@@H]1NC(=O)[C@H](Cc2ccccc2)N(C)C(=O)[C@H](CCCNC(=N)N)NC(=O)[C@H](Cc2ccc(C(=O)O)cc2)NC(=O)[C@H](Cc2cccc(OCC(=O)O)c2)NC(=O)CN(C)C(=O)[C@H]([C@@H](C)CC)NC(=O)[C@H](Cc2ccccc2)N(C)C(=O)[C@H](Cc2ccc(O)cc2)NC(=O)[C@H](Cc2c[nH]c3ccccc23)NC(=O)[C@H](C)NC(=O)[C@H](C)NC(=O)CSC[C@H](C(=O)N[C@@H](CCCCNC(=O)N2CCN(CC(=O)O)CC2)C(=O)O)NC(=O)[C@H](Cc2ccccc2)N(C)C(=O)[C@H](C)N(C)C1=O [Myostatin_99_v427] ({CH2CO}-AAWY[NMeF]I[Sar][Phe(3-OCH2COOH)][Phe(4-COOH)]R[NMeF][X1][NMeA][NMeF][dC]K([CO-Piperazinyl(4-CH2COOH)])-OH; thioether N-15)
inhibition at 0.1 µM (Myostatin; [3]): 100% | inhibition at 0.03 µM (Myostatin; [4]): 98% | inhibition (GDF-11; [5]): 0% | inhibition (GDF-11; [6]): 0%
